# Data taken from paper PMC4256678 (Nature neuroscience, 2014).
# Key:
# HDAC1 = HDAC1 (Homo sapiens, UniProt Q13547); assay: […]FTY720-P radioligand binding and displacement on Ni-NTA immobilized HDAC1
# HDAC2 [1] = molecular target: T1, HDAC2 (Homo sapiens, UniProt Q92769); assay: fluorometric HDAC activity assay, […]; assay type: biochemical
# HDAC8 = molecular target: T2, HDAC8 (Homo sapiens, UniProt Q9BY41); assay: fluorometric HDAC activity assay, […]; assay type: biochemical
# T2 sequence (Q9BY41 1-377): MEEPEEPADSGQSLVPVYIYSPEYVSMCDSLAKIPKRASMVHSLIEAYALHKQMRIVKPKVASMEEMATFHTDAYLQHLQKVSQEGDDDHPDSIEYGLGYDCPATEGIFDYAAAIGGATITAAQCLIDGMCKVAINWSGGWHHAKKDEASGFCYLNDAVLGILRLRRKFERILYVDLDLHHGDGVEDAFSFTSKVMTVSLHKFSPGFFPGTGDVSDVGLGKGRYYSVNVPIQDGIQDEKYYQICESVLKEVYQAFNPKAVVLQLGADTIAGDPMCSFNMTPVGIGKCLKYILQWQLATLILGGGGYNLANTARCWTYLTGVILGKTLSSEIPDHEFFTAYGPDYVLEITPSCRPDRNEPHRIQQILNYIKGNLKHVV
# HDAC3 [2] = molecular target: T3, HDAC3 (Homo sapiens, UniProt O15379); assay: fluorometric HDAC activity assay, […]; assay type: biochemical
# T3 sequence (O15379 whole entry): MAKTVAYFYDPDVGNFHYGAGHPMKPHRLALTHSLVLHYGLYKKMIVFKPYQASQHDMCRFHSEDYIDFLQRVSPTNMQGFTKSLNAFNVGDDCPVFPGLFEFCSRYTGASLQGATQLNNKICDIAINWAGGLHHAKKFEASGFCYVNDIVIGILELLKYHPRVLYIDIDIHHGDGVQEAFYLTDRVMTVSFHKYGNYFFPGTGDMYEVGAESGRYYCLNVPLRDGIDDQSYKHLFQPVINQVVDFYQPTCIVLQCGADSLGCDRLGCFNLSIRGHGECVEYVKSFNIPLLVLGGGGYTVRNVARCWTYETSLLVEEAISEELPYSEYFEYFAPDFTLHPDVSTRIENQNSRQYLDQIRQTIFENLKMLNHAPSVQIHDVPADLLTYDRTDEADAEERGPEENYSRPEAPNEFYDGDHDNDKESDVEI
# HDAC3 [3] = molecular target: T3, HDAC3; assay: fluorometric HDAC activity assay, […]; assay type: biochemical; remark: listed apart in the source
# HDAC2 [4] = molecular target: T1, HDAC2; assay: fluorometric HDAC activity assay, […]; assay type: biochemical; remark: listed apart in the source
# T1 sequence (Q92769 whole entry): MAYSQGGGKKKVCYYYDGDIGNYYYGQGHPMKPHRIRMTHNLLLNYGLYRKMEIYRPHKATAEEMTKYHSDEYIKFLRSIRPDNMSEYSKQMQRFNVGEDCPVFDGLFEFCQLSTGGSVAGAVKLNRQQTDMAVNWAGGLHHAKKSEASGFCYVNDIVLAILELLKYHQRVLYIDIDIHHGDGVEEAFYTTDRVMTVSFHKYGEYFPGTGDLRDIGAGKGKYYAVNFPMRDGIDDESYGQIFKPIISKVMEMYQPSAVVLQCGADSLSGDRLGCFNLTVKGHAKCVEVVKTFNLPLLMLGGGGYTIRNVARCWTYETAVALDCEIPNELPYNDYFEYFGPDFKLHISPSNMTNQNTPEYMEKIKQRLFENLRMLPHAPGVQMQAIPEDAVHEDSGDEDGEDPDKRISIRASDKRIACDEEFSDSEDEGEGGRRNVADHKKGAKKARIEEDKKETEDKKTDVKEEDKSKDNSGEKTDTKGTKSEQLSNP
# Sequence of HDAC1 (Q13547 whole entry): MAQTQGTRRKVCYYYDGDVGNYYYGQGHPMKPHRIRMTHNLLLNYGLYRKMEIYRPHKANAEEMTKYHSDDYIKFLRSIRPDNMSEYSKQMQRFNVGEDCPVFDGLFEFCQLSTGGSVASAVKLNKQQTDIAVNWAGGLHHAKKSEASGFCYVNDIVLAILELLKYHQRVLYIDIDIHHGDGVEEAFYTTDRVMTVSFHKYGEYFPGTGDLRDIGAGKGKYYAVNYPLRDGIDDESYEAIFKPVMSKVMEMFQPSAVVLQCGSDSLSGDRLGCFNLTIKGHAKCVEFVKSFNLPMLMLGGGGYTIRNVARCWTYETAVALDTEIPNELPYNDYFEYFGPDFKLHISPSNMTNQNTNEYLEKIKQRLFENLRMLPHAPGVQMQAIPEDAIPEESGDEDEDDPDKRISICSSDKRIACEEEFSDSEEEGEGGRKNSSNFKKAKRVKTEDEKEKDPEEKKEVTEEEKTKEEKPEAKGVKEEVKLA
Kd (HDAC1) [nM],Compound,"fluorometric HDAC activity assay, 0.5 or 5 uM (HDAC2 [1])","fluorometric HDAC activity assay, 0.5 or 5 uM (HDAC8)","fluorometric HDAC activity assay, 0.5 or 5 uM (HDAC3 [2])","fluorometric HDAC activity assay, 5 uM (HDAC3 [3])","fluorometric HDAC activity assay, 5 uM (HDAC2 [4])"
6.2,CCCCCCCCc1ccc(CC[C@](N)(CO)COP(=O)(O)O)cc1 [FTY720-P],"FTY720-P inhibited the activities of highly purified recombinant class I HDACs (HDAC1, HDAC2, HDAC3 and HDAC8)","FTY720-P inhibited the activities of highly purified recombinant class I HDACs (HDAC1, HDAC2, HDAC3 and HDAC8)","FTY720-P inhibited the activities of highly purified recombinant class I HDACs (HDAC1, HDAC2, HDAC3 and HDAC8)",,
,CCCCCCCCCCCCC/C=C/[C@@H](O)[C@@H](N)COP(=O)(O)O [S1P],,,,"Even though S1P inhibited HDAC1–HDAC3, it did not inhibit HDAC8 activity","Even though S1P inhibited HDAC1–HDAC3, it did not inhibit HDAC8 activity"
